Data as given in patent US20150266878A1, “NOVEL BI-RING PHENYL-PYRIDINES/PYRAZINES FOR THE TREATMENT OF CANCER” (HOFFMANN-LA ROCHE INC., priority 2012, published 2015).

Biological target: T1, CDK8/Cyclin C (Homo sapiens, UniProt P49336)
T1 construct: purchased Invitrogen PV4402
Assay: CDK8/Cyclin C LANCE TR-FRET kinase assay
Assay type: biochemical
Conditions: CDK8/Cyclin C 10 nM, ATP 24 μM, Ulight-GS peptide 80 nM, 37° C. 30 mins
From the text: CDK8/Cyclin C LANCE TR-FRET Kinase Assay:
The biological activity of the compounds of the invention can be determined using the assay described below.
CDK8/Cyclin C protein was obtained from Invitrogen, cat #PV4402. ULight-Glycogen Synthase (Ulight-GS) peptide with sequence PASVPPSPSLSRHSSPHQ(pS)ED, and Europium-anti-phospho Glycogen Synthase (Ser641) [Eu-anti-P-GS (Ser641)] were obtained from Perkin Elmer, cat #TRF0131-M and cat #TRF0220. Adenosine-5′-triphosphate (ATP) was obtained from Invitrogen, cat #PV3227.
A mixture of (1) a compound of formula I, (2) substrate [Ulight-GS peptide (80 nM) and ATP (24 μM)], and (3) CDK8/Cyclin C (10 nM) in reaction buffer (50 mM Hepes, pH7.0, 10 mM MgCl2, 1 mM EGTA, 0.2 mg/mL BSA, 0.8 mM DTT) were incubated at 37° C. for 30 mins. Then, [Eu-anti-P-GS (Ser641)] (1.5 nM) was added. Following incubation at room temperature for 30 mins, the TR-FRET signals were detected using Envision reader (Ex 340 nm, Em 615 nm and 665 nm) from Perkin Elmer. The reactivity in percentage of inhibition or dose response was analyzed with GraphPad Prism 5 (GraphPad Software).

T1 sequence (P49336 whole entry): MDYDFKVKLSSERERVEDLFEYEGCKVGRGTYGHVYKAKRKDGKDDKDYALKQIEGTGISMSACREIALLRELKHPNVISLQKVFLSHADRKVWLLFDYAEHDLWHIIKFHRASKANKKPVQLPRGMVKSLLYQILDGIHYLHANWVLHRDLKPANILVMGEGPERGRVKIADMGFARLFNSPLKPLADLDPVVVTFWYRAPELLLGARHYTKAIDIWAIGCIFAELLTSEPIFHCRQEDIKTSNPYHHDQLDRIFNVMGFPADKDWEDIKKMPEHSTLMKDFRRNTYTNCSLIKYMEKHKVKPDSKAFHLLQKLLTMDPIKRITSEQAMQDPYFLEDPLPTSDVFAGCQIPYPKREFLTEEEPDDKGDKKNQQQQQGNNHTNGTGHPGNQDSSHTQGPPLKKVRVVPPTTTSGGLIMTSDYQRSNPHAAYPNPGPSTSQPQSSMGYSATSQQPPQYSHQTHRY
T1 sequence (P24863 whole entry partner): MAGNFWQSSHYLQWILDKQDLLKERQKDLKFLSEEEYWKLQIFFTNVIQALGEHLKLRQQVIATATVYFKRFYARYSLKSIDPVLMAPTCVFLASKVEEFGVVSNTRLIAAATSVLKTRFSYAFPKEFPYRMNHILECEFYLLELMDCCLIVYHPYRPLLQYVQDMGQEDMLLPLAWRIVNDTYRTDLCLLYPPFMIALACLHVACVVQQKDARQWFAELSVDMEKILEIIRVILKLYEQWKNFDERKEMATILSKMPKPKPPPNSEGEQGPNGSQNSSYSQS

| Structure (SMILES) | IC50 |
| --- | --- |
| O=C(CO)NC[C@H](Nc1cncc(-c2ccc3[nH]nc(F)c3c2)c1)c1ccccc1 [Example 46, N-{(R)-2-[5-(3-Fluoro-1H-indazol-5-yl)-pyridin-3-ylamino]-2-phenyl-ethyl}-2-hydroxy-acetamide] | 2.4 nM |
| NC(=O)[C@@H](Nc1cncc(-c2ccc3[nH]nc(Cl)c3c2)c1)c1ccccc1 [Example 60, (S)-2-[5-(3-Chloro-1H-indazol-5-yl)-pyridin-3-ylamino]-2-phenyl-acetamide] | 9.2 nM |
| OC[C@H](Nc1cncc(-c2ccc3c(c2)OCO3)c1)c1ccccc1 [Example 14, (R)-2-(5-Benzo[1,3]dioxol-5-yl-pyridin-3-ylamino)-2-phenyl-ethanol] | 46.3 nM |
| OC[C@H](Nc1cncc(-c2cnc3[nH]ncc3c2)c1)c1ccccc1 [Example 24, (R)-2-Phenyl-2-[5-(1H-pyrazolo[3,4-b]pyridin-5-yl)-pyridin-3-ylamino]-ethanol] | 1.1 nM |
| O=C1Cc2cc(-c3cncc(N[C@@H](CO)c4ccccc4)c3)cnc2N1 [Example 7, 5-[5-((R)-2-Hydroxy-1-phenyl-ethylamino)-pyridin-3-yl]-1,3-dihydro-pyrrolo[2,3-b]pyridin-2-one] | 315 nM |
| OC[C@H](Nc1cncc(-c2ccc3[nH]ncc3n2)c1)c1ccccc1 [Example 27, (R)-2-Phenyl-2-[5-(1H-pyrazolo[4,3-b]pyridin-5-yl)-pyridin-3-ylamino]-ethanol] | 9.7 nM |
| Nc1n[nH]c2ccc(-c3cncc(N[C@@H](CO)c4ccccc4)c3)cc12 [Example 18, (R)-2-[5-(3-Amino-1H-indazol-5-yl)-pyridin-3-ylamino]-2-phenyl-ethanol] | 0.8 nM |
| OC[C@H](Nc1cncc(-c2ccc3c(c2)OCCO3)c1)c1ccccc1 [Example 15, (R)-2-[5-(2,3-Dihydro-benzo[1,4]dioxin-6-yl)-pyridin-3-ylamino]-2-phenyl-ethanol] | 350 nM |
| COCCS(=O)(=O)NC[C@H](Nc1cncc(-c2ccc3[nH]nc(C)c3c2)c1)c1ccccc1 [Example 53, 2-Methoxy-ethanesulfonic acid {(R)-2-[5-(3-methyl-1H-indazol-5-yl)-pyridin-3-ylamino]-2-phenyl-ethyl}-amide] | 1.7 nM |
| CC1(C)C(=O)Nc2ccc(-c3cncc(N[C@@H](CO)c4ccccc4)c3)cc21 [Example 2, 5-[5-((R)-2-Hydroxy-1-phenyl-ethylamino)-pyridin-3-yl]-3,3-dimethyl-1,3-dihydro-indol-2-one] | 132 nM |
| Cc1n[nH]c2ccc(-c3cncc(N[C@@H](CNS(=O)(=O)C4CC4)c4ccccc4)c3)cc12 [Example 51, Cyclopropanesulfonic acid {(R)-2-[5-(3-methyl-1H-indazol-5-yl)-pyridin-3-ylamino]-2-phenyl-ethyl}-amide] | 2.1 nM |
| O=c1[nH]c2ccc(-c3cncc(N[C@@H](CO)c4ccccc4)c3)cc2o1 [Example 12, 6-[5-((R)-2-Hydroxy-1-phenyl-ethylamino)-pyridin-3-yl]-3H-benzooxazol-2-one] | 3.8 nM |
| Cc1n[nH]c2ccc(-c3cncc(N[C@H](C(N)=O)c4ccccc4)c3)cc12 [Example 49, (S)-2-[5-(3-Methyl-1H-indazol-5-yl)-pyridin-3-ylamino]-2-phenyl-acetamide] | 4.2 nM |
| OC[C@H](Nc1cncc(-c2ccc3[nH]nc(F)c3c2)c1)c1ccccc1 [Example 19] | 1.8 nM |
| OCCNC[C@H](Nc1cncc(-c2ccc3[nH]nc(F)c3c2)c1)c1ccccc1 [Example 47, 2-{(R)-2-[5-(3-Fluoro-1H-indazol-5-yl)-pyridin-3-ylamino]-2-phenyl-ethylamino}-ethanol] | 15 nM |
| OC[C@H](Nc1cncc(-c2ccc3[nH]nc(Cl)c3c2)c1)c1ccccc1 [Example 28, (R)-2-[5-(3-Chloro-1H-indazol-5-yl)-pyridin-3-ylamino]-2-phenyl-ethanol] | 1 nM |
| O=C1Nc2ccc(-c3cncc(N[C@@H](CO)c4ccccc4)c3)cc2C12CC2 [Example 6, (R)-5′-(5-((2-Hydroxy-1-phenylethyl)amino)pyridin-3-yl)-spiro[cyclopropane-1,3′-indolin]-2′-one] | 2.9 nM |
